Measurements as given in ChEMBL document CHEMBL1201862, “PubChem BioAssay data set” (2004).
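Interpolation was linear, between the two tested concentrations surrounding the appropriate level; five concentrations were tested over 48 hours in 96-well plates. GI50 = concentration required for 50% inhibition of growth.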 Active and inactive are the calls of the source. Cut-off read from the data, not from the text of the source: active = GI50 up to about 1.1 µM and inactive = higher.

Experiments:
Assay in all cases: growth of human tumour cells (NCI), 48 h
SK-MEL-2 = test system: SK-MEL-2
SK-OV-3 = test system: SK-OV-3
LOX IMVI = test system: LOX IMVI
MDA-MB-231 = test system: MDA-MB-231
RPMI-8226 = test system: RPMI-8226
RXF 393 = test system: RXF 393
SW-620 = test system: SW-620
SK-MEL-5 = test system: SK-MEL-5
COLO 205 = test system: COLO 205
TK-10 = test system: TK-10
BT-549 = test system: BT-549
MDA-MB-435 = test system: MDA-MB-435
UACC-257 = test system: UACC-257
HCT-15 = test system: HCT-15
U-251 = test system: U-251
T47D = test system: T47D
KM12 = test system: KM12
HT-29 = test system: HT-29
Malme-3M = test system: Malme-3M
HOP-62 = test system: HOP-62
A498 = test system: A498
SK-MEL-28 = test system: SK-MEL-28
SF-295 = test system: SF-295
SNB-19 = test system: SNB-19
SN12C = test system: SN12C
UACC-62 = test system: UACC-62
M14 = test system: M14
SF-539 = test system: SF-539
PC-3 = test system: PC-3
OVCAR-4 = test system: OVCAR-4
SNB-75 = test system: SNB-75
OVCAR-8 = test system: OVCAR-8
MDA-N = test system: MDA-N
NCI-H23 = test system: NCI-H23
IGROV-1 = test system: IGROV-1
SF-268 = test system: SF-268
EKVX = test system: EKVX
NCI-H226 = test system: NCI-H226
CAKI-1 = test system: CAKI-1
SR = test system: SR
A549 = test system: A549
UO-31 = test system: UO-31
NCI/ADR-RES = test system: NCI/ADR-RES
OVCAR-3 = test system: OVCAR-3
NCI-H522 = test system: NCI-H522
Hs-578T = test system: Hs-578T
MOLT-4 = test system: MOLT-4
HOP-92 = test system: HOP-92
HCT-116 = test system: HCT-116
786-0 = test system: 786-0
K562 = test system: K562
MCF7 = test system: MCF7
OVCAR-5 = test system: OVCAR-5
NCI-H460 = test system: NCI-H460
ACHN = test system: ACHN
CCRF-CEM = test system: CCRF-CEM
DU-145 = test system: DU-145

SMILES: c1ccc(CCc2cccnc2)nc1
- GI50 (SK-MEL-2): > 100 µM (inactive)
- GI50 (SK-OV-3): > 100 µM (inactive)
- GI50 (LOX IMVI): > 100 µM (inactive)
- GI50 (MDA-MB-231): > 100 µM (inactive)
- GI50 (RPMI-8226): > 100 µM (inactive)
- GI50 (RXF 393): > 100 µM (inactive)
- GI50 (SW-620): > 100 µM (inactive)
- GI50 (SK-MEL-5): > 100 µM (inactive)
- GI50 (COLO 205): > 100 µM (inactive)
- GI50 (TK-10): > 100 µM (inactive)
- GI50 (BT-549): > 100 µM (inactive)
- GI50 (MDA-MB-435): > 100 µM (inactive)
- GI50 (UACC-257): > 100 µM (inactive)
- GI50 (HCT-15): > 100 µM
- GI50 (U-251): > 100 µM (inactive)
- GI50 (T47D): > 100 µM (inactive)
- GI50 (KM12): > 100 µM (inactive)
- GI50 (HT-29): > 100 µM (inactive)
- GI50 (Malme-3M): > 100 µM (inactive)
- GI50 (HOP-62): > 100 µM (inactive)
- GI50 (A498): > 100 µM (inactive)
- GI50 (SK-MEL-28): > 100 µM (inactive)
- GI50 (SF-295): > 100 µM (inactive)
- GI50 (SNB-19): > 100 µM (inactive)
- GI50 (SN12C): > 100 µM (inactive)
- GI50 (UACC-62): > 100 µM (inactive)
- GI50 (M14): > 100 µM (inactive)
- GI50 (SF-539): > 100 µM (inactive)
- GI50 (PC-3): > 100 µM (inactive)
- GI50 (OVCAR-4): > 100 µM (inactive)
- GI50 (SNB-75): > 100 µM (inactive)
- GI50 (OVCAR-8): > 100 µM (inactive)
- GI50 (MDA-N): > 100 µM (inactive)
- GI50 (NCI-H23): > 100 µM (inactive)
- GI50 (IGROV-1): > 100 µM (inactive)
- GI50 (SF-268): > 100 µM (inactive)
- GI50 (EKVX): > 100 µM (inactive)
- GI50 (NCI-H226): > 100 µM (inactive)
- GI50 (CAKI-1): > 100 µM (inactive)
- GI50 (SR): > 100 µM (inactive)
- GI50 (A549): > 100 µM (inactive)
- GI50 (UO-31): > 100 µM (inactive)
- GI50 (NCI/ADR-RES): > 100 µM (inactive)
- GI50 (OVCAR-3): > 100 µM (inactive)
- GI50 (NCI-H522): 45.7 µM (inactive)
- GI50 (Hs-578T): > 100 µM (inactive)
- GI50 (MOLT-4): > 100 µM (inactive)
- GI50 (HOP-92): > 100 µM (inactive)
- GI50 (HCT-116): > 100 µM (inactive)
- GI50 (786-0): > 100 µM (inactive)
- GI50 (K562): 52.4 µM (inactive)
- GI50 (MCF7): > 100 µM (inactive)
- GI50 (OVCAR-5): > 100 µM (inactive)
- GI50 (NCI-H460): > 100 µM (inactive)
- GI50 (ACHN): > 100 µM (inactive)

SMILES: COc1cc(/C=C2\CCC(C)/C(=C\c3cc(OC)c(OC)c(OC)c3)C2=O)cc(OC)c1OC (stereo not given)
- GI50 (SK-MEL-2): 1.67 µM (inactive)
- GI50 (SK-OV-3): 10.5 µM (inactive)
- GI50 (LOX IMVI): 3.27 µM (inactive)
- GI50 (MDA-MB-231): 8.41 µM (inactive)
- GI50 (RPMI-8226): 0.286 µM (active)
- GI50 (RXF 393): 2.55 µM (inactive)
- GI50 (SW-620): 3.8 µM (inactive)
- GI50 (SK-MEL-5): 2.21 µM (inactive)
- GI50 (COLO 205): 2.48 µM (inactive)
- GI50 (TK-10): 2.63 µM (inactive)
- GI50 (BT-549): 1.02 µM (active)
- GI50 (MDA-MB-435): 3.03 µM (inactive)
- GI50 (UACC-257): 3.78 µM (inactive)
- GI50 (HCT-15): 1.99 µM
- GI50 (U-251): 4.97 µM (inactive)
- GI50 (T47D): 8.95 µM (inactive)
- GI50 (KM12): 2.61 µM (inactive)
- GI50 (HT-29): 3.21 µM (inactive)
- GI50 (HOP-62): 3.63 µM (inactive)
- GI50 (A498): 1.76 µM (inactive)
- GI50 (CCRF-CEM): 1.29 µM (inactive)
- GI50 (SK-MEL-28): 4.35 µM (inactive)
- GI50 (SNB-19): 4.51 µM (inactive)
- GI50 (SN12C): 3.56 µM (inactive)
- GI50 (UACC-62): 1.82 µM (inactive)
- GI50 (M14): 1.96 µM (inactive)
- GI50 (PC-3): 2.7 µM (inactive)
- GI50 (SNB-75): 18.2 µM (inactive)
- GI50 (OVCAR-8): 2.4 µM (inactive)
- GI50 (MDA-N): 2.96 µM (inactive)
- GI50 (IGROV-1): 2.38 µM (inactive)
- GI50 (SF-268): 3.37 µM (inactive)
- GI50 (EKVX): 3.21 µM (inactive)
- GI50 (CAKI-1): 2.99 µM (inactive)
- GI50 (A549): 2.79 µM (inactive)
- GI50 (UO-31): 3.99 µM (inactive)
- GI50 (Hs-578T): 8.81 µM (inactive)
- GI50 (HOP-92): > 100 µM (inactive)
- GI50 (HCT-116): 3.32 µM (inactive)
- GI50 (786-0): 3.75 µM (inactive)
- GI50 (K562): 2.69 µM (inactive)
- GI50 (MCF7): 2.89 µM (inactive)
- GI50 (DU-145): 7.66 µM (inactive)
- GI50 (OVCAR-5): 3.38 µM (inactive)
- GI50 (ACHN): 3.02 µM (inactive)
